From patent US20050130116A1, “Stable expression of polymorphous forms of human cytochrome p450 2d6” (priority 2000, published 2005)
Read-outs that look alike come from different tables or passages of the source.

What was measured:
hCYP2D6 1 [1] = target: T1, hCYP2D6 1 (Homo sapiens, UniProt P10635); settings: V79MZh2D6*1 homogenate, NADPH (Bogni, 1999); racemic bufuralol; cited from earlier work
hCYP2D6 1 [2] = target: T1, hCYP2D6 1; settings: cited from earlier work
hCYP2D6 1 [3] = settings: cited from earlier work; for Km: racemic bufuralol
hCYP2D6*1 and hCYPOR = hCYP2D6*1 and hCYPOR (Homo sapiens, UniProt P10635); settings: V79MZh2D6*1-hOR homogenate; 200 μM racemic bufuralol
Description: 30 μg of Sca I linearized pSV450h2D6*1 DNA and 1 μg of Sca I linearized pRc/RSV-hCYPOR DNA were transfected. […] As in the case of transfection samples T1-T5, the expression vector pSV450h2D6*1 was employed in a 30fold excess over resistance vector pRc/RSV-hCYPOR.

hCYP2D6 [4] = target: T2, hCYP2D6 (Homo sapiens, UniProt P10635); assay: Effect of DMSO on tamoxifen-4-hydroxylase activity; type: biochemical; set-up: expressed in transfected cells; host or cells: V79MZ Chinese hamster fibroblasts (V79MZh2D6*1, DSM ACC2446; also V79MZh2D6*1-H and -S)
hCYP2D6 [5] = target: T2, hCYP2D6
hCYP2D6 9 = hCYP2D6 9 (Homo sapiens, UniProt P10635, DEL281-281); assay: Effect of quinidine on the stability of hCYP2D6 (CO difference spectra); settings: hCYP2D6 9 (V79MZh2D6*9); quinidine added to the culture medium during cultivation
Description: For the preparation of a cell homogenate, the V79MZ cells were cultured in at least three 250 ml tissue culture flasks up to a confluence of 80-100%. […] The medium was discarded, followed by rinsing twice with 5 ml icecold buffer (100 mM potassium phosphate, pH 7.4). The cells were loosened from the dish by means of a rubber scraper into 4 ml of icecold buffer, combined and pelleted by centrifugation for 10 min at 1500×g and 4° C. […] All aliquots were shock frozen in liquid nitrogen to disrupt the cells and afterwards stored at −80° C. until use.
The supernatant was introduced into a 2 ml glas-on-glas homogenizator, reduced by adding several crystals of sodium dithionite (Sigma, Deisenhofen) followed by 15 strokes, and split up between two quartz cuvettes.

human liver microsomes = settings: cited from earlier work; for contribution to the 4-hydroxylation of tamoxifen: human liver microsomes (Crewe et al., 1997); for tamoxifen-4-hydroxylation activity: 1 μM tamoxifen (Crewe et al., 1997)
V79MZh2D6 cells [6] = test system: V79MZh2D6 cells
V79MZh2D6 cells [7] = assay: Supplementation of culture medium with heme sources (cytotoxic limit, bufuralol hydroxylase activity); settings: up to the cytotoxic limit
[8] = AHH-1 TK+/− (h2D6Val/OR) microsomes, CYPOR/NADPH (Gentest, produkt # M117r)
[9] = E. coli, purified, CYPOR/NADPH (Gillam et al., 1995)
[10] = Sf9 insect cells cell extract, CYPOR/NADPH (Paine et al., 1996)
[11] = AHH-1 TK+/− (h2D6Metv2) microsomes, NADPH (Penman et al., 1993)
[12] = Hep G2 cell lysate, CuOOH (Tyndale et al., 1991a)
[13] = S. cerevisiae W(R) microsomes, Yred/NADPH (Oscarson et al., 1997)
[14] = Sf9 insect cells membranes, CYPOR/NADPH (Evert et al., 1997)
[15] = Sf9 insect cells membranes, CYPOR/NADPH (Patten et al., 1996)

T2 sequence (P10635 whole entry): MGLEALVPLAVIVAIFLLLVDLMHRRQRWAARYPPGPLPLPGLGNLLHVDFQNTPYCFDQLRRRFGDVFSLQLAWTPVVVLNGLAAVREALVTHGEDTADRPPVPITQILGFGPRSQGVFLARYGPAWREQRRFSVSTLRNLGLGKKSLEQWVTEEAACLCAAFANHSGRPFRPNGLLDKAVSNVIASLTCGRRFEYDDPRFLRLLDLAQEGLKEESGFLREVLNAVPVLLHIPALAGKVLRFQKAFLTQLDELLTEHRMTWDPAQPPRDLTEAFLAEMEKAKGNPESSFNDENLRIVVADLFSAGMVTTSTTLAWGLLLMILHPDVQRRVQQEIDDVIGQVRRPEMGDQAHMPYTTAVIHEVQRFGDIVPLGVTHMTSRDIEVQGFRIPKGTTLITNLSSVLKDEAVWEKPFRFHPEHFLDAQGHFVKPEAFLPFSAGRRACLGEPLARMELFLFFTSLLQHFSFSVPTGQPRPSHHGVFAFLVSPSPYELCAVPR
T1 sequence (P10635 whole entry): as above
Sequence of hCYP2D6 9 (P10635 with tags, fused parts or gaps DEL281-281): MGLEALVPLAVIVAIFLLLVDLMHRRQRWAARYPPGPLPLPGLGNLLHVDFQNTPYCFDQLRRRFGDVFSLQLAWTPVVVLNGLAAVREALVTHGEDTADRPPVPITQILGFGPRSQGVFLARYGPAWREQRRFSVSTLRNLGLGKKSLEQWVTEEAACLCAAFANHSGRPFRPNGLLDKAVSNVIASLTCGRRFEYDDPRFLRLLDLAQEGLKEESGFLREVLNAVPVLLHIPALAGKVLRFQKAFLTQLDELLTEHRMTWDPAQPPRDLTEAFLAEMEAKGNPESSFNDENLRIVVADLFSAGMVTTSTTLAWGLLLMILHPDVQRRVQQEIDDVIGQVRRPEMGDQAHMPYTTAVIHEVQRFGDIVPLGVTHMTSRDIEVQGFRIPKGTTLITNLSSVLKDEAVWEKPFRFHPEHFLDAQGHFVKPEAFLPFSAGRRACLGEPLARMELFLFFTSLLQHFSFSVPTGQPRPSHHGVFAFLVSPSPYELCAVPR

In the case of `CCc1cccc2cc(C(O)CNC(C)(C)C)oc12` (racemic) [racemic bufuralol], the “Vmax (+/−)” value (hCYP2D6 1 [1]) is given as 153 ± 26 pmol/mg/min, the “Reaction rate (+/−)” value (hCYP2D6 1 [2]; [8]) is given as 10.38 min⁻¹ and the “Vmax (+/−)” value (hCYP2D6 1 [2]; [8]) is given as 550 pmol/mg/min. The “Reaction rate (+/−)” value (hCYP2D6 1 [2]; purified from human liver, CYPOR/NADPH (Distlerath et al., 1985)) was 4.4 to 6.4 min⁻¹, the “Reaction rate (+/−)” value (hCYP2D6 1 [3]; [9]) was 1.2 ± 0.1 min⁻¹ and the Km (hCYP2D6 1 [3]; [9]) was 39 ± 5 µM. The “Reaction rate (+/−)” value (hCYP2D6 1 [3]; [10]) was 12.23 min⁻¹, the “Vmax (+/−)” value (hCYP2D6 1 [3]; [10]) was 370 pmol/mg/min and the Km (hCYP2D6 1 [3]; [10]) was 4.7 µM. The bufuralol hydroxylase activity (hCYP2D6*1 and hCYPOR) was 143 ± 6 pmol/mg/min.
For `CCc1cccc2cc([C@H](O)CNC(C)(C)C)oc12` [(+)-bufuralol], the “Vmax (+)” value (hCYP2D6 1 [3]; AHH-1 TK+/− (2D6Met/Hol) cell lysate, NADPH (Crespi et al., 1991)) is listed as 68 ± 0 pmol/mg/min, the “Vmax (+)” value (hCYP2D6 1 [3]; AHH-1 TK+/− (h2D6Metv2) cell lysate, NADPH (Penman et al., 1993)) is listed as 126 ± 1 pmol/mg/min and the “Reaction rate (+)” value (hCYP2D6 1 [3]; [11]) is listed as 4.5 min⁻¹. For the same compound, the “Vmax (+)” value (hCYP2D6 1 [3]; [11]) was 723 ± 35 pmol/mg/min, the “Vmax (+)” value (hCYP2D6 1 [3]; COS-1 cells homogenate, CYPOR/NADPH (Johansson et al., 1994)) was 3.4 pmol/mg/min and the “Vmax (+)” value (hCYP2D6 1 [3]; COS-1 cells homogenate, NADPH (Kagimoto et al., 1990)) was 20 to 50 pmol/mg/min. For the same compound, the “Reaction rate (+)” value (hCYP2D6 1 [3]; [12]) was 2.3 min⁻¹, the “Vmax (+)” value (hCYP2D6 1 [3]; [12]) was 34.1 pmol/mg/min and the “Reaction rate (+)” value (hCYP2D6 1 [3]; [13]) was 10 min⁻¹. For the same compound, the “Vmax (+)” value (hCYP2D6 1 [3]; [13]) was 116 pmol/mg/min, the “Reaction rate (+)” value (hCYP2D6 1 [3]; [14]) was 26.2 ± 0.4 min⁻¹ and the “Vmax (+)” value (hCYP2D6 1 [3]; [14]) was 17500 ± 2700 pmol/mg/min. The “Reaction rate (+)” value (hCYP2D6 1 [3]; [15]) was 0.96 min⁻¹ and the “Vmax (+)” value (hCYP2D6 1 [3]; [15]) was 500 to 1000 pmol/mg/min.
For `C[S+](C)[O-]` [DMSO, dimethylsulfoxide], the “tamoxifen-4-hydroxylase activity relative to that obtained at […] DMSO” value (hCYP2D6 [4]; 10% DMSO) was “about 20%” and the “effect on tamoxifen-4-hydroxylase activity” value (hCYP2D6 [4]; up to a DMSO concentration of […]) was “only sligthly affected”.
In the case of `CC/C(=C(\c1ccccc1)c1ccc(OCCNC)cc1)c1ccccc1` [Z-N-demethyl-tamoxifen], the “metabolism by V79MZh2D6 homogenate (hCYP2D6-catalyzed hydroxylation)” value (shortened to “metabolism by V79MZh2D6 homogenate”) (hCYP2D6 [5]) is reported as “proceeded well”.
With `CC/C(=C(\c1ccccc1)c1ccc(OCCN)cc1)c1ccccc1` [Z-N-didemethyl-tamoxifen] the “metabolism by V79MZh2D6 homogenate” value (hCYP2D6 [5]) was “negligible”.
With `CC/C(=C(\c1ccccc1)c1ccc(OCC[N+](C)(C)[O-])cc1)c1ccccc1` [Z-Tamoxifen-N-oxide] the “metabolism by V79MZh2D6 homogenate” value (hCYP2D6 [5]) was “only to a minor extent”.
With `C=C[C@H]1C[N@@]2CC[C@H]1C[C@@H]2[C@@H](O)c1ccnc2ccc(OC)cc12` [quinidine] the “increase in the amount of cytochrome P450” value (hCYP2D6 9) was 4-6 fold.
For `CC/C(=C(\c1ccccc1)c1ccc(OCCN(C)C)cc1)c1ccccc1` [tamoxifen], the “contribution to the 4-hydroxylation of tamoxifen” value (“contribution” below) (human liver microsomes; hCYP2C9*1) is given as “+”, the “contribution” value (human liver microsomes; hCYP2D6*1) is given as “+” and the “contribution” value (human liver microsomes; hCYP2E1) is given as “−”. The “contribution” value (human liver microsomes; hCYP3A4) was “+”, the tamoxifen-4-hydroxylation activity (human liver microsomes; human liver microsomes of extensive metabolizers) was 1.1-3 pmol/min/mg protein and the tamoxifen-4-hydroxylation activity (human liver microsomes; human liver microsomes of poor metabolizers) was 0.7-0.8 pmol/min/mg protein.
In the case of hemin chloride, the cytotoxic limit (V79MZh2D6 cells [6]) is reported as 10 µM and the “bufuralol hydroxylase activity per mg total protein in the cell homogenate after supplementation” value (V79MZh2D6 cells [7]) is reported as “no increased bufuralol hydroxylase activity”.
